What was measured:
[1] = molecular target: T1, full-length beta-Catenin (Uniprot ID P35222) (Homo sapiens, UniProt P35222); assay: Fluorescence polarization IC50 (beta-catenin / 5FAM-TCF4 10-53 competition); assay type: binding; conditions: fluorescence polarization; read-out: beta-Catenin FP IC50
T1 construct: 10 nM full-length beta-Catenin (Uniprot ID P35222)
T1 sequence (P35222 1-781): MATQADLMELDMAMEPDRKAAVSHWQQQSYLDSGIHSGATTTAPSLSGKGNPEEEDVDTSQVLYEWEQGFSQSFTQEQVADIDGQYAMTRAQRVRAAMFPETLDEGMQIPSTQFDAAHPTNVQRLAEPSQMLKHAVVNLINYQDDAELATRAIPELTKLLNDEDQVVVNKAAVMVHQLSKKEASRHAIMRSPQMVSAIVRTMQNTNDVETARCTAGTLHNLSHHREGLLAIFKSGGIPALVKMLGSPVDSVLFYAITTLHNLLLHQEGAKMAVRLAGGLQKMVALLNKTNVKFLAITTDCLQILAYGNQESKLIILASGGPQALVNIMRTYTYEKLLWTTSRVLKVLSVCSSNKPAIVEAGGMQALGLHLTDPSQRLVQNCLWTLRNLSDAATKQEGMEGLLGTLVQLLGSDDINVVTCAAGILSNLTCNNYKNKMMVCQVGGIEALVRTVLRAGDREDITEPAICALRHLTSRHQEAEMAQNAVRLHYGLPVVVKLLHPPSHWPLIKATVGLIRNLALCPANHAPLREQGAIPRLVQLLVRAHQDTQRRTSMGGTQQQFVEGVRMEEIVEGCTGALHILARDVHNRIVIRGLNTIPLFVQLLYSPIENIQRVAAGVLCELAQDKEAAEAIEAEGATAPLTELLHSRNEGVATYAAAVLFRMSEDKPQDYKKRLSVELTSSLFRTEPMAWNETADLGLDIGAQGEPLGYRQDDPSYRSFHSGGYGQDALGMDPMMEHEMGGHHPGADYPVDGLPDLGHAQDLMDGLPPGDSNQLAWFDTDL

[2] = molecular target: T2, beta-catenin/TCF4 engagement (Homo sapiens, UniProt P35222); assay: Nano-BRET target engagement assay (B-cat-Halo & TCF4-Luc in HEK293 cells); assay type: cell-based; conditions: read-out: NanoBRET Abs IC50
T2 construct: expressed in transfected cells; host or cells: HEK293
T2 sequence (P35222 1-781): T1 sequence (P35222 1-781)

| IC50 [1] | IC50 [2] | SMILES |
| --- | --- | --- |
| 10 nM | 4400 nM | CC(=O)N1CCC[C@]12CC=CCCCC1(CCCC=CCCCOC(=O)N3CC[C@@](C(=O)N[C@@H](Cc4ccsc4)C(=O)N[C@@H](Cc4csc5ccccc45)C(=O)N[C@H](CCC(N)=O)C(N)=O)(C3)NC(=O)[C@H](CC(C)C)NC(=O)[C@H](Cc3ccccc3)NC(=O)[C@H](C)NC(=O)[C@H](C)NC(=O)[C@H](Cc3cccc(C(=O)O)c3)NC(=O)[C@H](CC(=O)O)NC1=O)NC(=O)[C@H](CC(C)(C)C)NC(=O)[C@H](CC(=O)O)NC2=O (stereo partly drawn) [I-2088, Ac-PL3-Asp-Npg-B5-Asp-3COOHF-Ala-Ala-Phe-Leu-PyrS2-3Thi-BztA-dGln-NH2] |
| 11 nM | 5900 nM | CC(=O)N1CCC[C@]12CC=CCCCC1(CCCC=CCCCOC(=O)N3CC[C@@](C(=O)N[C@@H](Cc4ccsc4)C(=O)N[C@@H](Cc4csc5ccccc45)C(=O)N[C@H](C)C(N)=O)(C3)NC(=O)[C@H](CC(C)C)NC(=O)[C@H](Cc3ccccc3)NC(=O)[C@H](C)NC(=O)[C@H](C)NC(=O)[C@H](Cc3cccc(C(=O)O)c3)NC(=O)[C@H](CC(=O)O)NC1=O)NC(=O)[C@H](CC(C)(C)C)NC(=O)[C@H](CC(=O)O)NC2=O (stereo partly drawn) [I-2090, Ac-PL3-Asp-Npg-B5-Asp-3COOHF-Ala-Ala-Phe-Leu-PyrS2-3Thi-BztA-dAla-NH2] |
| 49 nM | 6200 nM | CC(=O)N1CCC[C@]12CC=CCCCC1(CCCC=CCCCOC(=O)N3CC[C@@](C(=O)N[C@@H](Cc4ccccc4C(F)(F)F)C(=O)N[C@@H](Cc4csc5ccccc45)C(=O)N[C@H](C)C(N)=O)(C3)NC(=O)[C@H](CC(C)C)NC(=O)[C@H](Cc3ccccc3)NC(=O)[C@H](C)NC(=O)[C@H](C)NC(=O)[C@H](Cc3cccc(C(=O)O)c3)NC(=O)[C@H](CC(=O)O)NC1=O)NC(=O)[C@H](CC(C)(C)C)NC(=O)[C@H](CC(=O)O)NC2=O (stereo partly drawn) [I-2091, Ac-PL3-Asp-Npg-B5-Asp-3COOHF-Ala-Ala-Phe-Leu-PyrS2-2F3MeF-BztA-dAla-NH2] |
| 15 nM | 4400 nM | CC(=O)N1CCC[C@]12CC=CCCCC1(CCCC=CCCCOC(=O)N3CC[C@@](C(=O)N[C@@H](Cc4ccsc4)C(=O)N[C@@H](Cc4csc5ccccc45)C(=O)N[C@H](CCC(N)=O)C(N)=O)(C3)NC(=O)[C@H](Cc3ccccc3)NC(=O)[C@H](Cc3ccccc3)NC(=O)[C@H](C)NC(=O)[C@H](C)NC(=O)[C@H](Cc3cccc(C(=O)O)c3)NC(=O)[C@H](CC(=O)O)NC1=O)NC(=O)[C@H](CC(C)(C)C)NC(=O)[C@H](CC(=O)O)NC2=O (stereo partly drawn) [I-2092, Ac-PL3-Asp-Npg-B5-Asp-3COOHF-Ala-Ala-Phe-Phe-PyrS2-3Thi-BztA-dGln-NH2] |
| 43 nM | 5000 nM | CC(=O)N1CCC[C@]12CC=CCCCC1(CCCC=CCCCOC(=O)N3CC[C@@](C(=O)N[C@@H](Cc4ccccc4C(F)(F)F)C(=O)N[C@@H](Cc4csc5ccccc45)C(=O)N[C@H](CCC(N)=O)C(N)=O)(C3)NC(=O)[C@H](Cc3ccccc3)NC(=O)[C@H](Cc3ccccc3)NC(=O)[C@H](C)NC(=O)[C@H](C)NC(=O)[C@H](Cc3cccc(C(=O)O)c3)NC(=O)[C@H](CC(=O)O)NC1=O)NC(=O)[C@H](CC(C)(C)C)NC(=O)[C@H](CC(=O)O)NC2=O (stereo partly drawn) [I-2093, Ac-PL3-Asp-Npg-B5-Asp-3COOHF-Ala-Ala-Phe-Phe-PyrS2-2F3MeF-BztA-dGln-NH2] |
| 28 nM | 9700 nM | CC(=O)N1CCC[C@]12CC=CCCCC1(CCCC=CCCCOC(=O)N3CC[C@@](C(=O)N[C@@H](Cc4ccsc4)C(=O)N[C@@H](Cc4csc5ccccc45)C(=O)N[C@H](C)C(N)=O)(C3)NC(=O)[C@H](Cc3ccccc3)NC(=O)[C@H](Cc3ccccc3)NC(=O)[C@H](C)NC(=O)[C@H](C)NC(=O)[C@H](Cc3cccc(C(=O)O)c3)NC(=O)[C@H](CC(=O)O)NC1=O)NC(=O)[C@H](CC(C)(C)C)NC(=O)[C@H](CC(=O)O)NC2=O (stereo partly drawn) [I-2094, Ac-PL3-Asp-Npg-B5-Asp-3COOHF-Ala-Ala-Phe-Phe-PyrS2-3Thi-BztA-dAla-NH2] |
| 78 nM | 10500 nM | CC(=O)N1CCC[C@]12CC=CCCCC1(CCCC=CCCCOC(=O)N3CC[C@@](C(=O)N[C@@H](Cc4ccccc4C(F)(F)F)C(=O)N[C@@H](Cc4csc5ccccc45)C(=O)N[C@H](C)C(N)=O)(C3)NC(=O)[C@H](Cc3ccccc3)NC(=O)[C@H](Cc3ccccc3)NC(=O)[C@H](C)NC(=O)[C@H](C)NC(=O)[C@H](Cc3cccc(C(=O)O)c3)NC(=O)[C@H](CC(=O)O)NC1=O)NC(=O)[C@H](CC(C)(C)C)NC(=O)[C@H](CC(=O)O)NC2=O (stereo partly drawn) [I-2095, Ac-PL3-Asp-Npg-B5-Asp-3COOHF-Ala-Ala-Phe-Phe-PyrS2-2F3MeF-BztA-dAla-NH2] |
| 79 nM | > 20000 nM | CC(=O)N1CCC[C@]12CC=CCCCC1(CCCC=CCCCOC(=O)N3CC[C@@](C(=O)N[C@@H](Cc4ccsc4)C(=O)N[C@@H](Cc4csc5ccccc45)C(=O)N[C@@H](C)C(N)=O)(C3)NC(=O)[C@H](CC(C)C)NC(=O)[C@H](Cc3ccccc3)NC(=O)[C@@H](C)NC(=O)[C@H](C)NC(=O)[C@H](Cc3cccc(C(=O)O)c3)NC(=O)[C@H](CC(=O)O)NC1=O)NC(=O)[C@H](CC(C)(C)C)NC(=O)[C@H](CC(=O)O)NC2=O (stereo partly drawn) [I-2096, Ac-PL3-Asp-Npg-B5-Asp-3COOHF-Ala-dAla-Phe-Leu-PyrS2-3Thi-BztA-Ala-NH2] |
| 23 nM | 22300 nM | CC(=O)N1CCC[C@]12CC=CCCCC1(CCCC=CCCCOC(=O)N3CC[C@@](C(=O)N[C@@H](Cc4ccsc4)C(=O)N[C@@H](Cc4csc5ccccc45)C(=O)N[C@@H](C)C(N)=O)(C3)NC(=O)[C@H](CC(C)C)NC(=O)[C@H](Cc3ccccc3)NC(=O)[C@@H](C)NC(=O)[C@H](C)NC(=O)[C@H](Cc3cccc(C(=O)O)c3)NC(=O)[C@H](CC(=O)O)NC1=O)NC(=O)[C@H](CC(C)(C)C)NC(=O)[C@H](CC(=O)O)NC2=O (stereo partly drawn) [I-2097, Ac-PL3-Asp-Npg-B5-Asp-3COOHF-Ala-dAla-Phe-Leu-PyrS2-3Thi-BztA-Ala-NH2] |
| 260 nM | > 20000 nM | CC(=O)N1CCC[C@]12CC=CCCCC1(CCCC=CCCCOC(=O)N3CC[C@@](C(=O)N[C@@H](Cc4ccccc4C(F)(F)F)C(=O)N[C@@H](Cc4csc5ccccc45)C(=O)N[C@@H](C)C(N)=O)(C3)NC(=O)[C@H](CC(C)C)NC(=O)[C@H](Cc3ccccc3)NC(=O)[C@@H](C)NC(=O)[C@H](C)NC(=O)[C@H](Cc3cccc(C(=O)O)c3)NC(=O)[C@H](CC(=O)O)NC1=O)NC(=O)[C@H](CC(C)(C)C)NC(=O)[C@H](CC(=O)O)NC2=O (stereo partly drawn) [I-2098, Ac-PL3-Asp-Npg-B5-Asp-3COOHF-Ala-dAla-Phe-Leu-PyrS2-2F3MeF-BztA-Ala-NH2] |
| 86 nM | > 20000 nM | CC(=O)N1CCC[C@]12CC=CCCCC1(CCCC=CCCCOC(=O)N3CC[C@@](C(=O)N[C@@H](Cc4ccsc4)C(=O)N[C@@H](Cc4csc5ccccc45)C(=O)N[C@H](C)C(N)=O)(C3)NC(=O)[C@H](CC(C)C)NC(=O)[C@H](Cc3ccccc3)NC(=O)[C@@H](C)NC(=O)[C@H](C)NC(=O)[C@H](Cc3cccc(C(=O)O)c3)NC(=O)[C@H](CC(=O)O)NC1=O)NC(=O)[C@H](CC(C)(C)C)NC(=O)[C@H](CC(=O)O)NC2=O (stereo partly drawn) [I-2100, Ac-PL3-Asp-Npg-B5-Asp-3COOHF-Ala-dAla-Phe-Leu-PyrS2-3Thi-BztA-dAla-NH2] |
